In ChEMBL document CHEMBL1149005, “Studies on zoapatle, II. Leucanthanolide, a novel sesquiterpene lactone from Montanoa leucantha ssp. leucantha” (1986):
In brackets after ≈: the same amount, converted by molar mass. Activity calls are given as the source filed them. The calls are words filed in the database; no cut-off is given here.

How the values were obtained:
Cavia porcellus = assay: Uteroevacuant activity in pregnant guinea pig at 20 mg/kg, ip administered on day 22 of gestation measured daily for 7 days; assay type: functional, organism-based; set-up: dose 20 mg/kg
P388 = assay: Cytotoxicity against mouse P388 cells; assay type: functional; conditions: read-out: ED50 (the source's name)
KB = assay: Cytotoxicity against human KB cells; assay type: functional; conditions: read-out: ED50 (the source's name)

C=C1C(=O)O[C@@H]2/C=C(\C)CC/C=C(\C)[C@@H](OC(=O)C(C)C)[C@H](O)[C@@]12O [LEUCANTHANOLIDE]
Activity (Cavia porcellus): inactive
EC50 (P388): 0.93 µg/mL (≈ 2.65 µM)
EC50 (KB): 0.57 µg/mL (≈ 1.63 µM)
